Data as given in US12186284B2, “Antimicrobial formulations for the treatment of veterinary hoof infections” (Provita Eurotech Ltd, priority 2016, dated 2025).

Columns and labels:
[1] = tested on: Escherichia coli (NCTC12241); test: Minimum inhibitory concentration (MIC); type: cell-based; conditions: three times the minimum inhibitory concentration
[2] = tested on: Escherichia coli (NCTC12241); test: Rate of kill assay based on BS EN 1276:1997, clean and dirty conditions; type: cell-based; conditions: 3× MIC (0.375% v/v; CS 0.15% w/v)
Source text: The rate of kill assay is based on the British and European standard test conditions BS EN 1276:1997.
The initial inoculum of microorganism ranged between 10^6-10^7 colony forming units per mL.

O=S(=O)([O-])[O-].[Cu+2] [CS, copper sulphate]
3MIC [1]: 0.15% | Surviving Bacterial Count (cfu/mL) under clean and dirty conditions ([2]; contact time 0 s, clean (no bovine albumin)): 3.2 × 10^6 cfu/mL | Surviving Bacterial Count (cfu/mL) under clean and dirty conditions ([2]; contact time 0 s, dirty (0.3% bovine albumin)): 1.4 × 10^7 cfu/mL | Surviving Bacterial Count (cfu/mL) under clean and dirty conditions ([2]; contact time 30 s, clean (no bovine albumin)): 1.7 × 10^6 cfu/mL | Surviving Bacterial Count (cfu/mL) under clean and dirty conditions ([2]; contact time 30 s, dirty (0.3% bovine albumin)): 1.1 × 10^7 cfu/mL | Surviving Bacterial Count (cfu/mL) under clean and dirty conditions ([2]; contact time 60 s, clean (no bovine albumin)): 6.2 × 10^5 cfu/mL | Surviving Bacterial Count (cfu/mL) under clean and dirty conditions ([2]; contact time 60 s, dirty (0.3% bovine albumin)): 9.7 × 10^6 cfu/mL | Surviving Bacterial Count (cfu/mL) under clean and dirty conditions ([2]; contact time 120 s, clean (no bovine albumin)): 3.3 × 10^5 cfu/mL | Surviving Bacterial Count (cfu/mL) under clean and dirty conditions ([2]; contact time 120 s, dirty (0.3% bovine albumin)): 5.2 × 10^6 cfu/mL | Surviving Bacterial Count (cfu/mL) under clean and dirty conditions ([2]; contact time 300 s, clean (no bovine albumin)): 5.0 × 10^3 cfu/mL | Surviving Bacterial Count (cfu/mL) under clean and dirty conditions ([2]; contact time 300 s, dirty (0.3% bovine albumin)): 3.2 × 10^4 cfu/mL
